Key:
Details in all cases: exposure time: 72 h
E21 [1] = patient-derived glioblastoma stem cells of mesenchymal subtype; assay: phenotypic distance (Euclidean, principal components) from DMSO controls (arbitrary units); higher = stronger morphological change
E28 [2] = patient-derived glioblastoma stem cells of classical subtype; assay: as above
E31 [3] = patient-derived glioblastoma stem cells of proneural subtype; assay: as above
E57 [4] = patient-derived glioblastoma stem cells of mesenchymal subtype; assay: as above
FT3469 [5] = normal neural stem cell line; assay: as above
E13 [6] = patient-derived glioblastoma stem cells of classical subtype; assay: as above
E34 [7] = patient-derived glioblastoma stem cells of proneural subtype; assay: as above
E21 [8] = assay: surviving fraction (nuclei count normalised to DMSO); higher = more cells surviving (less toxic)
E28 [9] = assay: as above
E31 [10] = assay: as above
E57 [11] = assay: as above
FT3469 [12] = assay: as above
E13 [13] = assay: as above
E34 [14] = assay: as above
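For phenotypic distance (Euclidean, principal components) from DMSO controls in this document: cell Painting imaging in 384-well plates, CellProfiler features reduced to at least 20 principal components, Euclidean distance versus same-plate DMSO vehicle wells (0.1% v/v), median over six images per well.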
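For surviving fraction (nuclei count normalised to DMSO) in this document: nuclei counted by high-content imaging of Hoechst-stained cells in laminin-coated 384-well plates, relative to 0.1% DMSO vehicle wells, with staurosporine as cell-death control.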

NCc1ccccc1CC(=O)N[C@@H]1C(=O)N2C(C(=O)O)=C(CSc3nnnn3CC(=O)O)CS[C@H]12 [Ceforanide]
Details	phenotypic distance	surviving fraction
E13 [6], 4.1 nM	0.868	–
E13 [6], 12.3 nM	0.834	–
E13 [6], 37 nM	0.565	–
E13 [6], 111.1 nM	2.99	–
E13 [6], 333.3 nM	0.49	–
E13 [6], 1000 nM	0.481	–
E13 [6], 3000 nM	1.06	–
E13 [13], 4.1 nM	–	0.857
E13 [13], 12.3 nM	–	0.899
E13 [13], 37 nM	–	0.892
E13 [13], 111.1 nM	–	0.955
E13 [13], 333.3 nM	–	0.967
E13 [13], 1000 nM	–	0.991
E13 [13], 3000 nM	–	0.821
E21 [1], 4.1 nM	0.452	–
E21 [1], 12.3 nM	0.464	–
E21 [1], 37 nM	0.533	–
E21 [1], 111.1 nM	0.73	–
E21 [1], 333.3 nM	0.545	–
E21 [1], 1000 nM	0.643	–
E21 [1], 3000 nM	0.896	–
E21 [8], 4.1 nM	–	0.96
E21 [8], 12.3 nM	–	1
E21 [8], 37 nM	–	1
E21 [8], 111.1 nM	–	0.945
E21 [8], 333.3 nM	–	0.927
E21 [8], 1000 nM	–	0.94
E21 [8], 3000 nM	–	0.913
E28 [2], 4.1 nM	0.755	–
E28 [2], 12.3 nM	0.829	–
E28 [2], 37 nM	0.872	–
E28 [2], 111.1 nM	0.701	–
E28 [2], 333.3 nM	0.858	–
E28 [2], 1000 nM	1.54	–
E28 [2], 3000 nM	1.07	–
E28 [9], 4.1 nM	–	1.01
E28 [9], 12.3 nM	–	0.94
E28 [9], 37 nM	–	1.19
E28 [9], 111.1 nM	–	0.907
E28 [9], 333.3 nM	–	0.952
E28 [9], 1000 nM	–	0.963
E28 [9], 3000 nM	–	0.899
E31 [3], 4.1 nM	0.821	–
E31 [3], 12.3 nM	0.599	–
E31 [3], 37 nM	0.687	–
E31 [3], 111.1 nM	0.68	–
E31 [3], 333.3 nM	0.855	–
E31 [3], 1000 nM	0.963	–
E31 [3], 3000 nM	0.779	–
E31 [10], 4.1 nM	–	0.969
E31 [10], 12.3 nM	–	0.993
E31 [10], 37 nM	–	0.944
E31 [10], 111.1 nM	–	1.06
E31 [10], 333.3 nM	–	0.801
E31 [10], 1000 nM	–	0.895
E31 [10], 3000 nM	–	1.03
E34 [7], 4.1 nM	0.618	–
E34 [7], 12.3 nM	0.456	–
E34 [7], 37 nM	0.886	–
E34 [7], 111.1 nM	0.834	–
E34 [7], 333.3 nM	0.882	–
E34 [7], 1000 nM	0.522	–
E34 [7], 3000 nM	0.877	–
E34 [14], 4.1 nM	–	1.07
E34 [14], 12.3 nM	–	1.01
E34 [14], 37 nM	–	1.2
E34 [14], 111.1 nM	–	0.873
E34 [14], 333.3 nM	–	1.1
E34 [14], 1000 nM	–	0.901
E34 [14], 3000 nM	–	0.86
E57 [4], 4.1 nM	0.735	–
E57 [4], 12.3 nM	0.47	–
E57 [4], 37 nM	0.604	–
E57 [4], 111.1 nM	0.425	–
E57 [4], 333.3 nM	0.594	–
E57 [4], 1000 nM	0.792	–
E57 [4], 3000 nM	0.948	–
E57 [11], 4.1 nM	–	0.871
E57 [11], 12.3 nM	–	0.985
E57 [11], 37 nM	–	0.982
E57 [11], 111.1 nM	–	0.995
E57 [11], 333.3 nM	–	1
E57 [11], 1000 nM	–	0.926
E57 [11], 3000 nM	–	0.897
FT3469 [5], 4.1 nM	0.788	–
FT3469 [5], 12.3 nM	0.666	–
FT3469 [5], 37 nM	0.745	–
FT3469 [5], 111.1 nM	0.803	–
FT3469 [5], 333.3 nM	0.916	–
FT3469 [5], 1000 nM	0.851	–
FT3469 [5], 3000 nM	1.28	–
FT3469 [12], 4.1 nM	–	0.899
FT3469 [12], 12.3 nM	–	0.944
FT3469 [12], 37 nM	–	0.806
FT3469 [12], 111.1 nM	–	1.05
FT3469 [12], 333.3 nM	–	0.931
FT3469 [12], 1000 nM	–	1.08
FT3469 [12], 3000 nM	–	0.785

C/C=C(\C)C(=O)N[C@@H](c1ccccc1)[C@@H](O)C(=O)O[C@H]1C[C@@]2(O)[C@@H](OC(=O)c3ccccc3)[C@@H]3[C@]4(OC(C)=O)CO[C@@H]4C[C@H](O)[C@@]3(C)C(=O)[C@H](OC(C)=O)C(=C1C)C2(C)C [Cephalomannine]
Details	phenotypic distance	surviving fraction
E13 [6], 4.11523 nM	4.23	–
E13 [6], 12.34567901 nM	4.51	–
E13 [6], 37.037 nM	4.54	–
E13 [6], 111.1111111 nM	6.45	–
E13 [6], 333.333 nM	5.33	–
E13 [6], 1000 nM	5.74	–
E13 [6], 3000 nM	5.58	–
E13 [13], 4.11523 nM	–	0.308
E13 [13], 12.34567901 nM	–	0.245
E13 [13], 37.037 nM	–	0.27
E13 [13], 111.1111111 nM	–	0.137
E13 [13], 333.333 nM	–	0.171
E13 [13], 1000 nM	–	0.171
E13 [13], 3000 nM	–	0.19
E21 [1], 4.11523 nM	4.99	–
E21 [1], 12.34567901 nM	5.05	–
E21 [1], 37.037 nM	5.62	–
E21 [1], 111.1111111 nM	6.2	–
E21 [1], 333.333 nM	5.44	–
E21 [1], 1000 nM	6.44	–
E21 [1], 3000 nM	7.14	–
E21 [8], 4.11523 nM	–	0.335
E21 [8], 12.34567901 nM	–	0.327
E21 [8], 37.037 nM	–	0.209
E21 [8], 111.1111111 nM	–	0.246
E21 [8], 333.333 nM	–	0.213
E21 [8], 1000 nM	–	0.214
E21 [8], 3000 nM	–	0.198
E28 [2], 4.11523 nM	3.22	–
E28 [2], 12.34567901 nM	3.3	–
E28 [2], 37.037 nM	3.65	–
E28 [2], 111.1111111 nM	3.5	–
E28 [2], 333.333 nM	3.82	–
E28 [2], 1000 nM	3.7	–
E28 [2], 3000 nM	4.32	–
E28 [9], 4.11523 nM	–	0.515
E28 [9], 12.34567901 nM	–	0.557
E28 [9], 37.037 nM	–	0.304
E28 [9], 111.1111111 nM	–	0.357
E28 [9], 333.333 nM	–	0.302
E28 [9], 1000 nM	–	0.286
E28 [9], 3000 nM	–	0.249
E31 [3], 4.11523 nM	3.6	–
E31 [3], 12.34567901 nM	4.39	–
E31 [3], 37.037 nM	3.82	–
E31 [3], 111.1111111 nM	4.56	–
E31 [3], 333.333 nM	4.66	–
E31 [3], 1000 nM	3.37	–
E31 [3], 3000 nM	3.61	–
E31 [10], 4.11523 nM	–	0.23
E31 [10], 12.34567901 nM	–	0.132
E31 [10], 37.037 nM	–	0.12
E31 [10], 111.1111111 nM	–	0.11
E31 [10], 333.333 nM	–	0.0834
E31 [10], 1000 nM	–	0.12
E31 [10], 3000 nM	–	0.148
E34 [7], 4.11523 nM	3.55	–
E34 [7], 12.34567901 nM	3.84	–
E34 [7], 37.037 nM	3.81	–
E34 [7], 111.1111111 nM	3.17	–
E34 [7], 333.333 nM	3.79	–
E34 [7], 1000 nM	3.73	–
E34 [7], 3000 nM	3.93	–
E34 [14], 4.11523 nM	–	0.497
E34 [14], 12.34567901 nM	–	0.442
E34 [14], 37.037 nM	–	0.356
E34 [14], 111.1111111 nM	–	0.284
E34 [14], 333.333 nM	–	0.293
E34 [14], 1000 nM	–	0.356
E34 [14], 3000 nM	–	0.382
E57 [4], 4.11523 nM	5.45	–
E57 [4], 12.34567901 nM	5.1	–
E57 [4], 37.037 nM	5.59	–
E57 [4], 111.1111111 nM	5.43	–
E57 [4], 333.333 nM	5.14	–
E57 [4], 1000 nM	5.43	–
E57 [4], 3000 nM	5.27	–
E57 [11], 4.11523 nM	–	0.156
E57 [11], 12.34567901 nM	–	0.125
E57 [11], 37.037 nM	–	0.0853
E57 [11], 111.1111111 nM	–	0.0579
E57 [11], 333.333 nM	–	0.0628
E57 [11], 1000 nM	–	0.0598
E57 [11], 3000 nM	–	0.0598
FT3469 [5], 4.11523 nM	2.71	–
FT3469 [5], 12.34567901 nM	2.83	–
FT3469 [5], 37.037 nM	3.01	–
FT3469 [5], 111.1111111 nM	3.67	–
FT3469 [5], 333.333 nM	3.37	–
FT3469 [5], 1000 nM	3.99	–
FT3469 [5], 3000 nM	4.09	–
FT3469 [12], 4.11523 nM	–	0.62
FT3469 [12], 12.34567901 nM	–	0.646
FT3469 [12], 37.037 nM	–	0.577
FT3469 [12], 111.1111111 nM	–	0.441
FT3469 [12], 333.333 nM	–	0.378
FT3469 [12], 1000 nM	–	0.465
FT3469 [12], 3000 nM	–	0.449

Source: the supplement of paper PMC13207355
